Experimental findings from patent US20080280890A1, “HYDROXYLAMINE COMPOUNDS AND METHODS OF THEIR USE” (priority 2007, published 2008) are described below.

Counter-ions that a name gives are not always drawn.

The subject of series [1] is Angiogenesis in CAM model. As to the kind of experiment: Neovascularization on the CAM (chick chorioallantoic membrane model of angiogenesis). It counts as in vivo, chicken. The conditions noted are these: 30 ug; unit assumed. As to the method: In vivo neovascularization was examined by the method previously described by Auerbach et al. (J. Dev. Biol. 41:391-394 (1974)). Ten-day old chicken embryos were purchased from Spafas, Inc. (Preston, Conn.) and were incubated at 37° C. with 55% relative humidity. In the dark, with the aid of a candling lamp, a small hole was punctured in the shell concealing the air sac with a hypodermic needle. A second hole was punctured in the shell on the broadside of the egg directly over an […] portion of the embryonic membrane, as observed during candling. An artificial air sac was created beneath the second hole by applying gentle vacuum to the first hole using a small rubber squeeze bulb. The vacuum caused the chorioallantoic membrane (CAM) to separate from the shell.
A window, approximately 1.0 cm^2, was cut in the shell over the dropped CAM with the use of a small crafts grinding wheel (Dremel, Division of Emerson Electric Company Racine, Wis.). The window allowed direct access to the underlying CAM.
A pro-angiogenic agent was added to induce new blood vessel branches on the CAM of 10-day old embryos. Filter disks of #1 filter paper (Whatman International, United Kingdom) were punched using a small puncher and were soaked in 3 mg/mL cortisone acetate (Sigma, St. Louis, Mo.) in a solution (95% ethanol and water). The disks were subsequently air dried under sterile conditions. The disks were then suspended in PBS (Phosphate Buffered Saline) and placed on growing CAMs. Filters treated with TP-H (TEMPOL-H) or TEMPOL and/or H2O2 or TP-H and/or bFGF or VEGF were placed on the first day of the 3-day incubation.
For inducing angiogenesis, sterile filter disks were saturated with bFGF (1 μg/ml) (Life Technologies, Gaithersburg, Md.) or other pro-angiogenesis factors and control disks were saturated with PBS without Calcium and Magnesium. […]
Using sterile forceps one filter/CAM was placed from the window. The window was sealed with Highland brand transparent tape.
After 24-48 hr, 10-25 ul of test agent was injected intravenously or added topically into the CAM membrane. Eight-Ten eggs/treatment group were used.
CAM tissue directly beneath filter disk was harvested from embryos treated 48 hours prior with compound or control. Tissues were washed three times with PBS. Sections were placed in a 35-mm petri dish (Nalge Nunc, Rochester, N.Y.) and examined under a SV6 stereomicroscope (Karl Zeiss, Thornwood, N.Y.) at 50× magnification.
CAM sections from Petri dish were examined using SV6 stereomicroscope (Karl Zeiss) at 50× magnification. Digital images of CAM sections from Petri dish were collected using a 3-CCD color video camera system (Toshiba America, New York, N.Y.). These images were analyzed using Image-Pro Plus software (Media Cybernetics, Silver Spring, Md.).
The number of branch points in blood vessels within the circular region superimposed to the area of a filter disk was counted for each section. After incubation at 37° C. with 55% relative humidity for 3 days, the CAM tissue directly beneath each filter disk was resected from control and treated CAM samples. Tissues were washed three times with PBS. Sections were placed in a 35-mm Petri dish (Nalge Nunc; Rochester, N.Y.) and were examined under a SV6 stereomicroscope (Karl Zeiss; Thornwood, N.Y.) at 50× magnification. Digital images of CAM sections adjacent to filters were collected using a 3-CCD color video camera system (Toshiba America; New York, N.Y.) and analyzed with the Image-Pro Plus software (Media Cybernetics; Silver Spring, Md.).
The number of vessel branch points contained in a circular region equal to the area of a filter disk was counted for each section. Percent inhibition data are expressed as the quotient of the experimental value minus the negative control value divided by the difference between the positive control value and the negative control value. […]

The test system of series [2] is Human neuroblastoma SKN-SH cells, resistant to doxorubicin. Briefly: Chemoresistance: cancer cell viability (MTT) in presence or absence of doxorubicin. The conditions noted are these: compound 50 ug/mL, MTT. It counts as cell-based. From the text:
A method for evaluating a compound's propensity to overcome cancer cell chemoresistance is described in “Caspase Inhibition Switches Doxorubicin-Induced Apoptosis To Senescence”, Abdelhadi Rebbaa, Xin Zheng, Pauline M Chou and Bernard L Mirkin, Oncogene (2003) 22, 2805-2811. Resistant human cancer cells to doxorubicin were selected by stepwise exposure to drug concentrations ranging from 10^−9 M-10^−6 M over 3 months. They were then subjected to treatment with the doxorubicin alone or in combination with hydroxylamine compounds 1-12, 16, 20, and 21 (Table 4). The cells were incubated with the drugs for 72 hours, and cell viability was measured by the MTT assay. Additionally, molecular pathways that might be associated with increased chemo-responsiveness with these compounds were investigated. p Cancer Cell Viability Data for certain hydroxylamines in the presence or absence of Doxorubicin is listed in Table 4.
A method for evaluating a compound's propensity to overcome cancer cell chemoresistance is described in “Caspase Inhibition Switches Doxorubicin-Induced Apoptosis To Senescence”, Abdelhadi Rebbaa, Xin Zheng, Pauline M Chou and Bernard L Mirkin, Oncogene (2003) 22, 2805-2811. Human neuroblastoma SKN-SH cells (ATCC Cat. No. HTB-11) were cultured in Dulbecco's Modified Eagles Medium (DMEM; Gibco, Grand Island, N.Y.) supplemented with 10% fetal bovine serum (FBS; Sigma-Aldrich, St. Louis, Mo.) at 37° C. in a 95% Air/5% CO2 atmosphere. Resistant human cancer cells to doxorubicin were selected by stepwise exposure to drug concentrations ranging from 10^−9M-10^−6M over 3 months. They were then subjected to treatment with the doxorubicin alone or in combination with hydroxylamine compounds. The cells were incubated with the drugs for 72 hours, and cell viability was measured by the MTT assay. This consists of adding 10 μl/well of MTT (5 mg/ml solution) and incubation for 4 h at 37° C. The precipitate formed is then solubilized by addition of 100 μl of HCL 0.5 N/Isopropanol and incubation for 15 hours at 37° C. The optical density is measured at 570 nm and cell survival is estimated by comparison to untreated cells. Each point represents 4 wells data represent average ± SE. Additionally, molecular pathways that might be associated with increased chemo-responsiveness with these compounds were investigated.
Cytotoxic activity of doxorubicin and hydroxylamine analogs were quantitatively determined by a colorimetric assay utilizing 3-(4,5-dimethyl-2-thiazolyl) 2,5-diphenyl tetrazolium bromide (MTT; Sigma-Aldrich, St. Louis, Mo.). Briefly, cells were seeded at 10^4 cells/well in 96-well plates and maintained in culture for 24 hours at 37° C. in DMEM supplemented with 10% FBS. Drugs were added to designated wells and cells were incubated for […], following which MTT (10 μL of 5 mg/ml solution) was added to each 100 μl well and incubated for 4 hours at 37° C. The cells were solubilized by incubation with 100 μl of HCl 0.5N in isopropanol for 15 hours at 37° C. The optical density of this solution was measured at 570 nm and the percentage of viable cells estimated by comparison with untreated control cells.

The melting point is the temperature of the solid-liquid transition. As for `CC1(C)CC(O)(c2ccc(F)cc2)CC(C)(C)N1O.Cl` [Compound 57, 4-(4-Fluorophenyl)-1-hydroxyl-2,2,6,6-tetramethylpiperidin-4-ol], the melting point is 220 °C (dec.). Moreover, in series [1], the Percent inhibition of angiogenesis in CAM model at 30 ug was 100%. Also, in series [2] (Dox. 10^−6 M present (+)), the “Mean OD (×10^−3), cancer cell viability” value is recorded as 426.25 ×10^−3. The “Mean OD (×10^−3), cancer cell viability” value in series [2] (Dox. absent (−)) was 1078.50 ×10^−3.

In the case of `CC1(C)C=C(COc2ccccc2N2CCOCC2)C(C)(C)N1O.Cl`, the melting point is 155.7 °C (dec.).

Take `CC1(C)CC(Oc2nc3ccccc3s2)CC(C)(C)N1O.Cl`: the melting point is 160 °C (dec.).

Regarding `CC1(C)c2ccc(Br)cc2C(C)(C)N1O.Cl`, the melting point came to 214.1 °C.

As for `CC1(C)CC(C#N)CC(C)(C)N1O.Cl` [Compound 12, 4-cyano-1-hydroxyl-2,2,6,6-tetramethylpiperidine], the melting point was 186 °C (dec.). Moreover, in series [2] (Dox. 10^−6 M present (+)), the “Mean OD (×10^−3), cancer cell viability” value is 287.25 ×10^−3. Also, the “Mean OD (×10^−3), cancer cell viability” value in series [2] (Dox. absent (−)) was 539.25 ×10^−3.

`CC1(C)CC(Oc2nsnc2C(=O)O)CC(C)(C)N1O.Cl`: the melting point was 209.1 °C (dec.).

For `CC(C)(C)OC(=O)c1nsnc1OC1CC(C)(C)N(O)C(C)(C)C1.Cl`, the melting point is 197 °C (dec.).

For `Cc1c(C)c2c(c(C)c1O)CCC(C)(C(=O)NC1CC(C)(C)N(O)C(C)(C)C1)O2.Cl` (stereo not shown), the melting point was 174.9 °C (dec.).

Turning to `CC1(C)CC(Nc2nc3ccccc3s2)CC(C)(C)N1O.Cl`, the melting point was 183 °C (dec.).

For `CC1(C)CC(NS(C)(=O)=O)CC(C)(C)N1O` (as salt: salt) [Compound 10, 1-hydroxy-4-methanesulfonamido-2,2,6,6-tetramethylpiperidine], the melting point was 178.3 °C (dec.).

As for `CC1(C)CC(Oc2nc3ccc(F)cc3s2)CC(C)(C)N1O.Cl`, the melting point was 178 °C (dec.).

In the case of `CC(C)c1nsnc1OCC1=CC(C)(C)N(O)C1(C)C` (as salt: hydrochloride) [Compound 51], the melting point was 155.7 °C.

As to `COc1ccc2nc(NC3CC(C)(C)N(O)C(C)(C)C3)sc2c1.Cl`, the melting point is 220 °C (dec.).

For the compound `COc1cc2c(cc1OC)CN(c1nsnc1OC1CC(C)(C)N(O)C(C)(C)C1)CC2.Cl`, the melting point is 166.9 °C (dec.).

Consider `CC1(C)CC(O)C(C)(C)N1O` (stereo not shown) (as salt: salt) [Compound 7, 2,2,5,5-Tetramethyl-Pyrrolidine-1,3-diol], for which the melting point is 155.5 °C (dec.).

As for `CC1(C)CC(Oc2nsnc2N2CCSCC2)CC(C)(C)N1O.Cl` [Compound 55, 4-(4-(1-hydroxy-2,2,6,6-tetramethylpiperidin-4-yloxy)-1,2,5-thiadiazol-3-yl)thiomorpholine], the melting point was 218 °C (dec.). Further, the “Mean OD (×10^−3), cancer cell viability” value in series [2] (Dox. 10^−6 M present (+)) was 285.75 ×10^−3. The “Mean OD (×10^−3), cancer cell viability” value in series [2] (Dox. absent (−)) is on record as 1037.25 ×10^−3.

In series [1], `COc1ccc(C2=C(c3cc(OC)c(OC)c(OC)c3)C(C)(C)N(O)C2(C)C)cc1C=O` [Compound 46, 5-(2,5,-dihydro-4-(3,4,5-trimethoxyphenyl)-1-hydroxy-2,2,5,5-tetramethyl-1H-pyrrol-3-yl)-2-methoxybenzaldehyde] displayed a Percent inhibition of angiogenesis in CAM model at 30 ug of 45.1%. The “Mean OD (×10^−3), cancer cell viability” value in series [2] (Dox. 10^−6 M present (+)) is 32.75 ×10^−3; in series [2] (Dox. absent (−)), 79.00 ×10^−3.

In the case of `CC1(C)C=C(CO)C(C)(C)N1O` (as salt: chloride) [Compound 8], the melting point was 141.9 °C (dec.).

Take `CC1(C)CC(NC(=O)CCCCC2CCSS2)CC(C)(C)N1O` (stereo not shown) (as salt: hydrochloride) [Compound 49, 5-(1,2-dithialan-3-yl)-N-(1-hydroxy-2,2,6,6-tetramethylpiperidin-4-yl)pentanamide]: the melting point was 164.7 °C (dec.).

In the case of `CC1(C)CC(Oc2nsnc2C#N)CC(C)(C)N1O` (as salt: hydrochloride) [Compound 45], the melting point was 179.2 °C (dec.).

With `CC1(C)C(CO)=C(c2ccc(F)cc2)C(C)(C)N1O.Cl` [Compound 59, (4-(4-fluorophenyl)-1-hydroxy-2,5-dihydro-2,2,5,5-tetramethyl-1H-pyrrol-3-yl)methanol], the Percent inhibition of angiogenesis in CAM model at 30 ug in series [1] was determined as 53%. In addition, the “Mean OD (×10^−3), cancer cell viability” value in series [2] (Dox. 10^−6 M present (+)) was 352.00 ×10^−3; in series [2] (Dox. absent (−)), 1105.00 ×10^−3.

In series [1], `CC1(C)CC(NC(=O)C2CC2)CC(C)(C)N1O.Cl` [Compound 31, N-(1-hydroxy-2,2,6,6-tetramethylpiperidin-4-yl)cyclopropanecarboxamide] registered a Percent inhibition of angiogenesis in CAM model at 30 ug of 38.8%. The “Mean OD (×10^−3), cancer cell viability” value in series [2] (Dox. 10^−6 M present (+)) is 322.25 ×10^−3; in series [2] (Dox. absent (−)) it was 1175.25 ×10^−3.

`Cc1nsnc1OCC1=CC(C)(C)N(O)C1(C)C` (as salt: hydrochloride) [Compound 47, 3-((1-hydroxy-2,5-dihydro-2,2,5,5-tetramethyl-1H-pyrrol-3-yl)methoxy)-4-methyl-1,2,5-thiadiazole]: the melting point was determined as 173.2 °C.

In series [1], `CC1(C)CC(c2nn[nH]n2)CC(C)(C)N1O.Cl` [Compound 30, 1-hydroxy-2,2,6,6-tetramethyl-4-(2H-tetrazol-5-yl)piperidine] yielded a Percent inhibition of angiogenesis in CAM model at 30 ug of 90.4%. Further, the “Mean OD (×10^−3), cancer cell viability” value in series [2] (Dox. 10^−6 M present (+)) is recorded as 310.00 ×10^−3; in series [2] (Dox. absent (−)) it was 1301.25 ×10^−3.

As for `CC1(C)CC(Oc2nsnc2N2CCN(C(=O)c3ccco3)CC2)CC(C)(C)N1O.Cl`, the melting point was 198.1 °C (dec.).
